Results as given in patent US20150266857A1, “NOVEL 3-INDOL SUBSTITUTED DERIVATIVES, PHARMACEUTICAL COMPOSITIONS AND METHODS FOR USE” (iTeos Therapeutics, priority 2014, published 2015).

What was measured:
[1] = molecular target: T1, human recombinant TDO2 enzyme (Homo sapiens, UniProt P48775); assay: Assay for TDO2 enzymatic activity determination; type: biochemical; details: human recombinant TDO2, L-Trp 1 mM, kynurenine absorbance at 480 nm
T1 construct: made in house
Procedure: To measure the TDO2 activity, the procedure described in Dolusic et al. J. Med. Chem.; 2011, 54, […] was adapted: the reaction mixture contained (final concentrations) potassium phosphate buffer (50 mM, pH 7.5), ascorbic acid (0.25 M), methylene blue (0.125 μM), catalase (40 units/mL, from bovine liver, Sigma), and human recombinant TDO2 enzyme (prepared as described in Dolusic et al. J. Med. Chem.; 2011, 54, 5320-5334; 0.9 μg) without or with the compounds of the present invention at the indicated concentrations (total volume 112.5 μL). The reaction was initiated by the addition of 37.5 μL of L-Trp (final concentration 1 mM) at room temperature. The reaction was conducted at room temperature during one hour and stopped by the addition of 30 μL of 30% (w/v) trichloroacetic acid.
To convert N-formylkynurenine into kynurenine, the reaction mixture was incubated at 65° C. for 30 min. Then 150 μL of the reaction mixture was mixed with 120 μL of 2.5% (w/v) 4-(dimethylamino)-benzaldehyde in acetic acid and incubated for 5 min at room temperature. Kynurenine concentrations were determined by measuring the absorbance at 480 nm. A standard curve was made with pure kynurenine. The TDO activity was measured as described above using ten serial concentrations of the compounds of the present invention. Data were fitted using the Prism™ software (GraphPad Software, Inc.) using standard parameters.

[2] = molecular target: T2, human glioblastoma A172 cells, naturally expressing hTDO2 (Homo sapiens, UniProt P48775); assay: Cellular assay for TDO2 activity, A172 cells; type: cell-based; details: overnight incubation, kynurenine in supernatant
T2 construct: human glioblastoma A172 cells, naturally expressing hTDO2; endogenous in cells; host or cells: human glioblastoma A172 cells (ATCC CRL-1620)
T2 sequence (P48775 whole entry): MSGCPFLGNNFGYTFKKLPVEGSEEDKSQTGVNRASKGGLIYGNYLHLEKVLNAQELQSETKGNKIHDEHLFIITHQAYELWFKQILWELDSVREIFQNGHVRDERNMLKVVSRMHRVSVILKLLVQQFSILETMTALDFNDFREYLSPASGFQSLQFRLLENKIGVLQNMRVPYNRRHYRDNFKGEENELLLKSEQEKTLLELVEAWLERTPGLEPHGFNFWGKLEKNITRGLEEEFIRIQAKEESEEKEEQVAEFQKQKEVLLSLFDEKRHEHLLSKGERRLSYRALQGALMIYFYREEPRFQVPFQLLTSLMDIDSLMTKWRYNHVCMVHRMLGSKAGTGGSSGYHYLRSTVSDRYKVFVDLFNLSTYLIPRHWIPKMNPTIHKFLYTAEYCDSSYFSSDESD
Outline: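 A172 human glioblastoma cells naturally expressing TDO2, seeded at 1.25×10^4 cells/well, were incubated overnight at 37 °C in IMDM with 2% FBS and ten serial compound concentrations. Supernatant kynurenine, after TCA precipitation and Ehrlich's reagent, was read at 480 nm against a kynurenine standard curve; data curve-fitted.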

[3] = molecular target: T3, murine mastocytoma P815 cells overexpressing hTDO2 (Homo sapiens, UniProt P48775); assay: Cellular assay for TDO2 activity, hTDO2-overexpressing P815 cells; type: cell-based; details: P815 cells overexpressing hTDO2, overnight incubation, kynurenine in supernatant
T3 construct: expressed in transfected cells; host or cells: murine mastocytoma P815 cells
T3 sequence (P48775 whole entry): as above
Procedure: The assay (adapted from Pilotte L et al., Proc Natl Acad Sci USA, 2012, 109(7), 2497-502) was performed in 96-well flat bottom plates seeded with murine mastocytoma P815 cells overexpressing hTDO2 (prepared as described in Pilotte et al., PNAS, 2012, 109(7), 2497-2502), at a concentration of 5×10^4 cells/well in a final volume of 200 μL. To determine TDO or IDO activity, the cells were incubated overnight at 37° C. at 5% CO2 in IMDM (Invitrogen) supplemented with 2% FBS and 2% penicillin/streptomycin in the presence of the compounds of the present invention, at different concentrations. The cells may be obtained from the American Type Cuylture Collecion [ATCC® TIB-64™ or commercially, e.g., from Sigma-Aldrich or Life Technologies.]
The plates were then centrifuged 5 min at 1000 rpm, and 100 μL of the supernatant were collected in a conical plate, 30 uL of TCA 30% were added and a further centrifugated at 3000×g for 10 minutes. 100 μL of the supernatant were collected in a flat bottomed plate and 100 μL of 2% (w/v) 4-(dimethylamino)-benzaldehyde in acetic acid and incubated for 5 min at room temperature. Kynurenine concentrations were determined by measuring the absorbance at 480 nm. A standard curve was made with pure kynurenine. The TDO activity was measured as described above using ten serial concentrations of the compounds of the present invention. Data were fitted using the Prism™ software (GraphPad Software, Inc.) using standard parameters.

T1 sequence (P48775 whole entry): as above

Row | IC50 [1] [nM] | IC50 [2] [nM] | IC50 [3] [nM] | SMILES
1 | – | 501 | 176 | NC(=O)Cn1c(=O)oc2cc(-c3c[nH]c4cc(F)ccc34)ccc21 [Compound 64, 2-(6-(6-fluoro-1H-indol-3-yl)-2-oxobenzo[d]oxazol-3(2H)-yl)acetamide]
2 | – | 335 | 109 | O=c1[nH]c2ccc(-c3c[nH]c4cc(F)ccc34)cc2[nH]1 [Compound 65, 5-(6-fluoro-1H-indol-3-yl)-1H-benzo[d]imidazol-2(3H)-one]
3 | – | 284 | 203 | Fc1ccc2c(-c3ccc4nc(CN5CCOCC5)oc4c3)c[nH]c2c1 [Compound 66, 6-(6-fluoro-1H-indol-3-yl)-2-(morpholinomethyl)benzo[d]oxazole]
4 | – | 218 | 78 | CN1CCN(Cc2nc3ccc(-c4c[nH]c5cc(F)ccc45)cc3o2)CC1 [Compound 68, 6-(6-fluoro-1H-indol-3-yl)-2-((4-methylpiperazin-1-yl)methyl)benzo[d]oxazole]
5 | – | 435 | 251 | CS(=O)(=O)NCc1nc2cc(-c3c[nH]c4cc(F)ccc34)ccc2o1 [Compound 70, N-((5-(6-fluoro-1H-indol-3-yl)benzo[d]oxazol-2-yl)methyl)methanesulfonamide]
6 | – | 152 | 72 | CS(=O)(=O)NCc1nc2ccc(-c3c[nH]c4cc(F)ccc34)cc2o1 [Compound 74, N-((6-(6-fluoro-1H-indol-3-yl)benzo[d]oxazol-2-yl)methyl)methanesulfonamide]
7 | – | 143 | 92 | CC(=O)NCc1nc2ccc(-c3c[nH]c4cc(F)ccc34)cc2o1 [Compound 75, N-((6-(6-fluoro-1H-indol-3-yl)benzo[d]oxazol-2-yl)methyl)acetamide]
8 | – | 265 | 246 | Fc1ccc2c(-c3ccc4nn(CC5CCNCC5)cc4c3)c[nH]c2c1 [Compound 77, 5-(6-fluoro-1H-indol-3-yl)-2-(piperidin-4-ylmethyl)-2H-indazole]
9 | – | 149 | 82 | Fc1ccc2c(-c3ccc4nc(CN5CCNCC5)oc4c3)c[nH]c2c1 [Compound 78, 6-(6-fluoro-1H-indol-3-yl)-2-(piperazin-1-ylmethyl)benzo[d]oxazole]

Second part, the compound before the results:

Row | SMILES | IC50 [1] [nM] | IC50 [2] [nM] | IC50 [3] [nM]
10 | Fc1ccc2c(-c3ccc4cn[nH]c4c3)c[nH]c2c1 [Compound 1, 6-(6-fluoro-1H-indol-3-yl)-1H-indazole] | 586 | 178 | 154
11 | Cc1nc2cc(-c3c[nH]c4cc(F)ccc34)ccc2[nH]1 [Compound 26, 5-(6-fluoro-1H-indol-3-yl)-2-methyl-1H-benzo[d]imidazole] | 388 | – | 150
12 | CS(=O)(=O)N1CCN(Cc2nc3cc(-c4c[nH]c5cc(F)ccc45)ccc3[nH]2)CC1 [Compound 34, 5-(6-fluoro-1H-indol-3-yl)-2-((4-(methylsulfonyl)piperazin-1-yl)methyl)-1H-benzo[d]imidazole] | – | – | 863
13 | NCCc1nc2ccc(-c3c[nH]c4cc(F)ccc34)cc2[nH]1 [Compound 35, 2-(6-(6-fluoro-1H-indol-3-yl)-1H-benzo[d]imidazol-2-yl)ethanamine] | – | – | 689
14 | CC(=O)NCCc1nc2ccc(-c3c[nH]c4cc(F)ccc34)cc2[nH]1 [Compound 36, N-(2-(6-(6-fluoro-1H-indol-3-yl)-1H-benzo[d]imidazol-2-yl)ethyl)acetamide] | – | – | 1130
15 | CS(=O)(=O)NCCc1nc2ccc(-c3c[nH]c4cc(F)ccc34)cc2[nH]1 [Compound 37, N-(2-(6-(6-fluoro-1H-indol-3-yl)-1H-benzo[d]imidazol-2-yl)ethyl)methanesulfonamide] | – | – | 1530
16 | CS(=O)(=O)CCc1nc2cc(-c3c[nH]c4cc(F)ccc34)ccc2[nH]1 [Compound 38, 5-(6-fluoro-1H-indol-3-yl)-2-(2-(methylsulfonyl)ethyl)-1H-benzo[d]imidazole] | – | 512 | 505
17 | Fc1ccc2c(-c3ccc4nc(C5CCNCC5)[nH]c4c3)c[nH]c2c1 [Compound 39, 6-(6-fluoro-1H-indol-3-yl)-2-(piperidin-4-yl)-1H-benzo[d]imidazole] | – | – | 2860
18 | CS(=O)(=O)N1CCC(c2nc3ccc(-c4c[nH]c5cc(F)ccc45)cc3[nH]2)CC1 [Compound 40, 6-(6-fluoro-1H-indol-3-yl)-2-(1-(methylsulfonyl)piperidin-4-yl)-1H-benzo[d]imidazole] | – | – | 750
19 | CNCc1nc2cc(-c3c[nH]c4cc(F)ccc34)ccc2[nH]1 [Compound 44, 1-(5-(6-fluoro-1H-indol-3-yl)-1H-benzo[d]imidazol-2-yl)-N-methylmethanamine] | – | – | 345
20 | Fc1ccc2c(-c3ccc4[nH]c(CN5CCOCC5)nc4c3)c[nH]c2c1 [Compound 45, 4-((5-(6-fluoro-1H-indol-3-yl)-1H-benzo[d]imidazol-2-yl)methyl)morpholine] | – | – | 595
21 | Fc1ccc2c(-c3ccc4ocnc4c3)c[nH]c2c1 [Compound 47, 5-(6-fluoro-1H-indol-3-yl)benzo[d]oxazole] | – | 479 | 100
22 | Cc1nc2cc(-c3c[nH]c4cc(F)ccc34)ccc2o1 [Compound 48, 5-(6-fluoro-1H-indol-3-yl)-2-methylbenzo[d]oxazole] | – | – | 118
23 | Fc1ccc2c(-c3ccc4ncoc4c3)c[nH]c2c1 [Compound 53, 6-(6-fluoro-1H-indol-3-yl)benzo[d]oxazole] | – | – | 79
24 | Cc1nc2ccc(-c3c[nH]c4cc(F)ccc34)cc2o1 [Compound 54, 6-(6-fluoro-1H-indol-3-yl)-2-methylbenzo[d]oxazole] | – | – | 109
25 | Fc1ccc2c(-c3ccc4nc(CN5CCNCC5)[nH]c4c3)c[nH]c2c1 [Compound 59, 6-(6-fluoro-1H-indol-3-yl)-2-(piperazin-1-ylmethyl)-1H-benzo[d]imidazole] | – | – | 622
26 | NC(=O)Cc1nc2ccc(-c3c[nH]c4cc(F)ccc34)cc2[nH]1 [Compound 60, 2-(6-(6-fluoro-1H-indol-3-yl)-1H-benzo[d]imidazol-2-yl)acetamide] | – | – | 638
27 | CN1CCN(Cc2nc3cc(-c4c[nH]c5cc(F)ccc45)ccc3o2)CC1 [Compound 62, 5-(6-fluoro-1H-indol-3-yl)-2-((4-methylpiperazin-1-yl)methyl)benzo[d]oxazole] | – | 335 | 210
